# Test system: rhythmic bladder contractions induced by substance P
# Experiment: Inhibitory effect on the rhythmic bladder contractions induced by substance P in anesthetized rats
# Assay type: in vivo, rat
# Settings: time during which frequency of rhythmic contraction was completely inhibited, 0.25 mg/kg of the compound, substance P infusion
# Experimental: Inhibitory effect on the rhythmic bladder contractions induced by substance P in anesthetized rats
# For the experiments, Sprague-Dawley female rats (9 to 12 weeks old) weighing between 200 to 300 g were used. After urethane anesthetization (subcutaneously administered with a dose of 1.2 g/kg), cannulae were placed in both right and left femoral veins. One intravenous catheter was used for administration of compounds, and the other was for the substance P (0.33 μg/kg/min) infusion. We also cannulated into ureter to pass urine. Polyethylene catheters were inserted into carotid artery for continuous monitoring of arterial blood pressure and heart rate. For continuous infusion, transurethral bladder catheter was inserted into the bladder through the urethra and tied in place by a ligature around the urethral orifice. One end of the catheter was attached to a pressure transducer in order to measure intravesical pressure. The other end of the catheter was used for infusion of saline into the bladder. After stabilization of blood pressure and heart rate and after the bladder was emptied, cystometry was performed by filling the bladder slowly with about 0.6 ml of saline. After about 10 minutes, intravenous infusion of substance P (0.33 μg/kg/min) was started for stabilization of the micturition reflex. Compounds were administered after stable rhythmic bladder contraction was obtained over 15 minutes. All compounds were dissolved or suspended in saline containing 0.5% Tween 80 for intravenous administration (0.1 ml/kg).
# A 100% inhibition time (minute) of the selected compounds of the present invention is shown in the following Table 65 with a rank of A, B or C. These ranges are as mentioned below. A≧20>B≧10>C (minute)
row,Compound,100% inhibition time range
1,N#CCCc1nc(-c2ccc(F)cc2)[nH]c1-c1ccsc1 [Preparation example 46],B (A≧20>B≧10>C (minute))
2,CC(C)c1ccc(-c2nc(CC(=O)O)c(-c3cccs3)o2)cc1 [Preparation Example 291],C (A≧20>B≧10>C (minute))
3,"CCc1[nH]c(-c2ccc(F)cc2)nc1C(=O)c1ccccn1 [Preparation example 72, 5-ethyl-2-(4-fluorophenyl)-imidazol-4-yl-(2-pyridyl) ketone]",C (A≧20>B≧10>C (minute))
4,CN(C)c1ncc(-c2nc(CC(=O)O)c(-c3ccc(Cl)s3)s2)cn1 [Preparation Example 611],B (A≧20>B≧10>C (minute))
5,O=C(O)Cc1nc(-c2ccc(F)cc2)oc1-c1cc2ccccc2o1 [Preparation Example 254],C (A≧20>B≧10>C (minute))
6,O=C(O)Cc1nc(-c2ccc(CO)cc2)oc1-c1ccc(Cl)s1 [Preparation Example 436],C (A≧20>B≧10>C (minute))
7,CCc1nc(-c2ccc(C)nc2)[nH]c1-c1cncs1 [Preparation example 83],B (A≧20>B≧10>C (minute))
8,O=C(O)Cc1sc(-c2ccc(F)cc2)nc1-c1cccs1 [Preparation Example 577],B (A≧20>B≧10>C (minute))
9,CN(C)c1ccc(-c2nc(-c3ccc(Cl)s3)c(CC(=O)O)s2)cn1 [Preparation Example 571],A (A≧20>B≧10>C (minute))
10,"Cl.Cl.N#CCCc1[nH]c(-c2ccc(F)cc2)nc1-c1cccnc1 [Preparation example 43, 5-(2-cyanoethyl)-2-(4-fluorophenyl)-4-(3-pyridyl)-imidazole dihydrochloride]",C (A≧20>B≧10>C (minute))
11,COc1ccc(-c2nc(-c3ccc(Cl)s3)c(CC(=O)O)o2)cc1 [Preparation Example 516],B (A≧20>B≧10>C (minute))
12,CCc1nc(-c2ccc(F)cc2)[nH]c1-c1ccc(C)nc1 [Preparation example 47],B (A≧20>B≧10>C (minute))
13,O=C(Cc1nc(-c2ccc(F)cc2)oc1-c1ccsc1)NCc1ccccn1 [Preparation Example 375],C (A≧20>B≧10>C (minute))
14,COc1ccc(-c2nc(CC(=O)O)c(-c3ccsc3)o2)cn1 [Preparation Example 369],B (A≧20>B≧10>C (minute))
15,Cc1cc(-c2nc(CC(=O)O)c(-c3ccc(Cl)s3)o2)sc1C [Preparation Example 467],A (A≧20>B≧10>C (minute))
16,O=C(O)Cc1nc(-c2ccc(F)cc2)oc1-c1cccc(O)c1 [Preparation Example 258],C (A≧20>B≧10>C (minute))
17,"CS(=O)(=O)Nc1nc(-c2ccc(F)cc2)oc1-c1ccc(Cl)c(F)c1.[Na] [Preparation Example 348, 5-(4-chloro-3-fluorophenyl)-2-(4-fluorophenyl)oxazol-4-yl methanesulfonamide sodium salt]",C (A≧20>B≧10>C (minute))
18,NC(C(=O)O)c1nc(-c2ccc(F)cc2)oc1-c1ccc(Cl)s1 (centres unmarked) [Preparation Example 627],C (A≧20>B≧10>C (minute))
19,CN(C)c1ncc(-c2nc(-c3ccc(Cl)cc3)c(CC(=O)O)o2)cn1 [Preparation Example 513],C (A≧20>B≧10>C (minute))
20,CCCc1nc(-c2ccc(F)cc2)[nH]c1-c1cccnc1 [Preparation example 93],B (A≧20>B≧10>C (minute))
21,COc1ccc(-c2nc(-c3ccc(Cl)s3)c(CC(=O)O)s2)cn1 [Preparation Example 591],B (A≧20>B≧10>C (minute))
22,CN(C)c1ccc(-c2nc(CC(=O)O)c(-c3ccc(Cl)s3)o2)cn1 [Preparation Example 260],A (A≧20>B≧10>C (minute))
23,Cn1c(-c2nc(CC(=O)O)c(-c3ccc(Cl)s3)o2)cc2ccccc21 [Preparation Example 472],A (A≧20>B≧10>C (minute))
24,COc1ccc(-c2oc(-c3ccc(F)cc3)nc2CC(=O)O)cc1OC [Preparation Example 160],C (A≧20>B≧10>C (minute))
25,COCc1nc(-c2ccc(C#N)cc2)[nH]c1-c1ccccc1 [Preparation example 124],B (A≧20>B≧10>C (minute))
26,2-(4-fluorophenyl)-5-(2-thienyl)oxazole-4-yl propionic acid sodium salt [Preparation Example 338],C (A≧20>B≧10>C (minute))
27,"CCc1[nH]c(-c2ccc(F)cc2)nc1-c1cccnc1.Cl.Cl [Preparation example 80, 5-ethyl-2-(4-fluorophenyl)-4-(3-pyridyl)imidazole dihydrochloride]",B (A≧20>B≧10>C (minute))

row,Compound,100% inhibition time range
1,CC(O)c1ccc(-c2oc(-c3ccc(F)cc3)nc2CC(=O)O)s1 (centres unmarked) [Preparation Example 234],C (A≧20>B≧10>C (minute))
2,COCc1nc(-c2ccc(F)cc2)[nH]c1-c1ccsc1 [Preparation example 122],B (A≧20>B≧10>C (minute))
3,CCc1nc(-c2ccc(F)cc2)[nH]c1-c1cccnc1C [Preparation example 48],C (A≧20>B≧10>C (minute))
4,O=C(O)Cc1nc(-c2ccc(F)cc2)oc1-c1cccs1 [Preparation Example 614],C (A≧20>B≧10>C (minute))
5,CCc1nc(-c2ccc(F)cc2)[nH]c1-c1cncnc1 [Preparation example 85],C (A≧20>B≧10>C (minute))
6,CSc1cccc(-c2nc(CC(=O)O)c(-c3ccc(Cl)s3)o2)c1 [Preparation Example 457],B (A≧20>B≧10>C (minute))
7,COc1ccc(-c2nc(CC(=O)O)c(-c3ccc(Cl)cc3)o2)cc1 [Preparation Example 475],B (A≧20>B≧10>C (minute))
8,O=C(O)Cc1nc(-c2ccc(N3CCSC3)nc2)oc1-c1ccsc1 [Preparation Example 529],B (A≧20>B≧10>C (minute))
9,"CCc1[nH]c(-c2cc(Cl)sc2S(N)(=O)=O)nc1-c1cccnc1.Cl.Cl [Preparation example 144, 2-(5-Chloro-2-sulfamoylthiophen-3-yl)-5-ethyl-4-(3-pyridyl) imidazole dihydrochloride]",C (A≧20>B≧10>C (minute))
10,Cc1ccc2sc(-c3nc(CC(=O)O)c(-c4ccc(Cl)s4)o3)cc2c1 [Preparation Example 450],B (A≧20>B≧10>C (minute))
11,O=C(O)Cc1nc(-c2ccc(F)cc2)oc1-c1ccccc1O [Preparation Example 237],C (A≧20>B≧10>C (minute))
12,CCc1nc(-c2ccc(C)nc2)[nH]c1-c1ccccc1 [Preparation example 28],B (A≧20>B≧10>C (minute))
13,O=C(O)Cc1sc(-c2ccc(Cl)cc2)nc1-c1ccc(Cl)s1 [Preparation Example 588],C (A≧20>B≧10>C (minute))
14,O=C(O)Cc1nc(-c2cc3ccccc3s2)oc1-c1ccc(Cl)c(F)c1 [Preparation Example 447],B (A≧20>B≧10>C (minute))
15,O=C(Cc1nc(-c2ccc(F)cc2)oc1-c1ccsc1)NS(=O)(=O)c1cccnc1 [Preparation Example 371],C (A≧20>B≧10>C (minute))
16,CCOc1c(F)cc(-c2oc(-c3ccc(F)cc3)nc2CC(=O)O)cc1OC [Preparation Example 251],C (A≧20>B≧10>C (minute))
17,Cc1ccccc1-c1nc(CC(=O)O)c(-c2cccs2)o1 [Preparation Example 433],C (A≧20>B≧10>C (minute))
18,CS(=O)(=O)Nc1ccccc1-c1oc(-c2ccc(F)cc2)nc1CC(=O)O [Preparation Example 238],C (A≧20>B≧10>C (minute))
19,Cc1cc(-c2nc(CC(=O)O)c(-c3ccc(Cl)cc3)o2)sc1C [Preparation Example 474],C (A≧20>B≧10>C (minute))
20,COCc1nc(-c2cccc(F)c2)[nH]c1-c1ccccc1 [Preparation example 123],C (A≧20>B≧10>C (minute))
21,O=C(O)Cc1[nH]c(-c2cc3ccccc3s2)nc1-c1ccc(Cl)s1 [Preparation Example 351],C (A≧20>B≧10>C (minute))
22,"CS(=O)(=O)NC(=O)Cc1nc(-c2ccc(F)cc2)oc1-c1ccsc1.[Na] [Preparation Example 370, N-[2-(4-fluorophenyl)-5-(3-thienyl)oxazol-4-ylacetyl]methanesulfonamide sodium salt]",C (A≧20>B≧10>C (minute))
23,CN(C)c1ccc(-c2nc(-c3ccc(Cl)c(F)c3)c(CC(=O)O)s2)cn1 [Preparation Example 585],C (A≧20>B≧10>C (minute))
24,O=C(O)Cc1nc(-c2ccc(Cl)cc2)oc1-c1ccco1 [Preparation Example 201],C (A≧20>B≧10>C (minute))
25,"CS(=O)(=O)Nc1nc(-c2ccc(F)cc2)oc1-c1ccsc1.[Na] [Preparation Example 380, N-[2-(4-fluorophenyl)-5-(3-thienyl)oxazol-4-yl]methanesulfonamide sodium salt]",C (A≧20>B≧10>C (minute))
26,COc1ccc(-c2nc(CC(=O)O)c(-c3ccc(Cl)c(F)c3)o2)cc1 [Preparation Example 525],A (A≧20>B≧10>C (minute))
